From patent publication US11059795B2, “Androgen receptor modulators and methods for their use” (ESSA Pharma, Inc., priority 2018, dated 2021)

How the values were obtained:
androgen receptor (AR) = molecular target: T1, androgen receptor (AR) (Homo sapiens, UniProt P10275, T878A); assay: Androgen-induced PSA (6.1 kb)-luciferase reporter assay in LNCaP cells; format: cell-based; conditions: LNCaP cells transfected with PSA (6.1 kb)-luciferase reporter, R1881 1 nM, 24 h; read-out: PSA-Luc IC50 Range
T1 construct: LNCaP cells were transiently transfected with the PSA (6.1 kb)-luciferase reporter for 24 h; endogenous in cells; host or cells: LNCaP
T1 sequence (P10275 1-920 T878A): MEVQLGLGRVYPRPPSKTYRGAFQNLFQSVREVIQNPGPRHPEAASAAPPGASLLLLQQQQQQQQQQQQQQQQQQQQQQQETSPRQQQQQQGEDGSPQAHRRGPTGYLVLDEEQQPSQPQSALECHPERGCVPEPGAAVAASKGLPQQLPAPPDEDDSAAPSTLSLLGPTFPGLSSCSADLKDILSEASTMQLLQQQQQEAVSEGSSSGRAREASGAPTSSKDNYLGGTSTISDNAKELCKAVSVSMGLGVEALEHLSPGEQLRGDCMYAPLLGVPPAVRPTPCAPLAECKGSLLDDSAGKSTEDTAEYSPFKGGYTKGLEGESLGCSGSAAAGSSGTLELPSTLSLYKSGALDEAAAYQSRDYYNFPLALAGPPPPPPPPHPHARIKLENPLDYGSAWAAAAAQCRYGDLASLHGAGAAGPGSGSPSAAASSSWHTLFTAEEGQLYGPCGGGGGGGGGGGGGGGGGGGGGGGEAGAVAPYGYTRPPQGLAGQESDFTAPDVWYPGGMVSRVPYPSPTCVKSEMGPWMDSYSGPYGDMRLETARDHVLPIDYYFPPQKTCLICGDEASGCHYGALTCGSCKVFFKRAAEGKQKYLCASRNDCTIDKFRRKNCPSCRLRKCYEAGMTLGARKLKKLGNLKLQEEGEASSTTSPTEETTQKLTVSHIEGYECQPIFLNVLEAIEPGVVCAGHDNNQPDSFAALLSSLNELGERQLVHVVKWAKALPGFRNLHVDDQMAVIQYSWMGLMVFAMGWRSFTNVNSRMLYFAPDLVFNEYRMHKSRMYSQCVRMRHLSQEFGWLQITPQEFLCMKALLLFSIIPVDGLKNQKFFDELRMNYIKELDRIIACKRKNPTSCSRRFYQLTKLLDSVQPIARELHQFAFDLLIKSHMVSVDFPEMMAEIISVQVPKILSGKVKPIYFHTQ
In short: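 Read-out is firefly luminescence (10 s) in LNCaP lysates, normalized to protein, from an ARE-containing PSA (6.1 kb)-luciferase reporter driven by androgen.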

[1] = Microsomal stability assay, mouse liver microsomes; format: in vitro ADME; conditions: mouse, liver microsomes, pH 7.4, mouse liver microsomes, 1 μM compound, 0.5 mg/mL protein, 37° C.; read-out: MLM +30/− NADPH: Clint (μL/min/mg protein)
In short: (§1)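 Compound at 1 μM was incubated at 37° C with 0.5 mg/mL liver microsomes and 1 mM NADPH and/or 1 mM UDPGA (with alamethicin) in 100 mM potassium phosphate pH 7.4, 3 mM MgCl2. Samples were taken at 0, 15, 30 and 60 min and measured by LC/MS/MS. t½ came from compound loss relative to 0 min, and Clint was scaled with 45 mg microsomal protein/g liver.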

[2] = Microsomal stability assay, human liver microsomes; format: in vitro ADME; conditions: pH 7.4, 1 μM compound, 0.5 mg/mL protein, 37° C., read-out: HLM +/− NADPH: Clint (μL/min/mg protein)
In short: as §1

[3] = Hepatocyte stability assay, mouse hepatocytes; format: in vitro ADME; conditions: mouse, cryopreserved hepatocytes, 1 μM compound, 0.5 million cells/mL, 37° C., read-out: MH +/− NADPH: Clint (μL/min/million cells)
Excerpt: The […] of in vitro intrinsic clearance (Clint) for drug candidates in the early discovery stage is common practice in the pharmaceutical industry. The Clint values of drug candidates can help to confirm whether metabolism is the main clearance pathway when it is compared with the total body clearance in vivo. Hepatocytes are among the routinely used in vitro systems for measuring clearance. Hepatocytes have been reported to retain most of the phase I and phase II metabolic activities, and therefore, it is a useful tool to estimate the intrinsic clearance for potential drug candidates.
Metabolic stability of testing compound were be evaluated using human and mouse hepatocytes and can also be use rat, mouse, or other animal hepatocytes to predict intrinsic clearance. Cryopreserved hepatocytes were removed from the liquid nitrogen tank and thawed in a 37° C. water bath. As soon as the cells pulled away from the vial wall, they were decanted into 48 ml of warm HT medium. Cells were centrifuged for four minutes at 420 rpm (50 g). After removing the supernatant, pellet was re-suspended in warm DMEM medium. Cell density was counted by a hemacytometer.
The assay was carried out in 96-well microtiter plates. Compounds were incubated for 0, 60, 120, and 180 minutes at 37° C. with hepatocytes. Reaction mixtures (50 μL) contained a final concentration of 1 μM test compound, 0.5 million cells/mL hepatocytes in the DMEM medium. At each of the time points (for example, 0, 1, 2, and 3 hours), 200 μL of quench solution (100% acetonitrile with 0.1% formic acid) with internal standard was transferred to each well. Midazolam was included as a positive control to verify assay performance. Plates were sealed and centrifuged at 4° C. for 15 minutes at 4000 rpm. The supernatant is transferred to fresh plates for LC/MS/MS analysis.
Summarized conditions (customizable): [Compound]=[…], Positive control: midazolam and/or naloxone, [Hepatocyte]=0.5 million cells/Ml, time=0, 60, 120, and 180 min, t=37° C.
All samples were analyzed on LC/MS/MS using an AB Sciex API 4000 instrument, coupled to a Shimadzu LC-20AD LC Pump system. Analytical samples were separated using a Waters Atlantis T3 dC18 reverse phase HPLC column (20 mm×2.1 mm) at a flow rate of 0.5 mL/min. The mobile phase consisted of 0.1% formic acid in water (solvent A) and 0.1% formic acid in 100% acetonitrile (solvent B).
The extent of metabolism was calculated as the disappearance of the test compound, compared to the 0-min control reaction incubations. Initial rates were calculated for the compound concentration and used to determine t½ values and subsequently, the intrinsic clearance, Clint. Clint=(0.693)(1/t½(min))(mL incubation/million cells)

SMILES | IC50 (androgen receptor (AR)) [nM] | microsomal CLint at 1 μM [1] [µL/min/mg] | microsomal CLint at 1 μM [2] [µL/min/mg] | hepatocyte CLint at 1 μM [3] [µL/min/1e6 cells]
CC(C)(c1ccc(OCc2cnc(C(N)=O)o2)cc1)c1cc(Cl)c(CCCCl)c(C#N)c1 [Compound A114] | 500 to 2000 | 12 to 48 | < 12 | ≥ 18
CC(C)(c1ccc(OCc2cnc(C#N)o2)cc1)c1cc(Cl)c(OCCCl)c(C#N)c1 [Compound A113] | > 2000 | 12 to 48 | 12 to 48 | ≥ 18
CC(C)(c1ccc(CNc2ccnc(NS(C)(=O)=O)n2)cc1)c1cc(Cl)c(OCCCl)c(C#N)c1 [Compound A120] | > 2000 | < 12 | ≥ 48 | 4 to 18
CC(Oc1ccc(C(C)(C)c2cc(Cl)c(OCCCl)c(Cl)c2)cc1)c1[nH]cnc1S(C)(=O)=O (stereo not shown) [Compound A116] | 500 to 2000 | 12 to 48 | 12 to 48 | 4 to 18
Cc1nc(COc2ccc(C(C)(C)c3cc(Cl)c(OCCCl)c(C#N)c3)cc2)cc(NS(C)(=O)=O)n1 [Compound A99] | 500 to 2000 | 12 to 48 | < 12 | 4 to 18
CC(=O)Nc1nccc(C(C)Oc2ccc(C(C)(C)c3cc(Cl)c(OCCCl)c(C#N)c3)cc2)n1 (stereo not shown) [Compound A145] | 500 to 2000 | ≥ 48 | ≥ 48 | ≥ 18
CC(C)(c1ccc(OCc2csc(NS(C)(=O)=O)n2)cc1)c1cc(Cl)c(OCCCl)c(C#N)c1 [Compound A134, N-(4-((4-(2-(3-chloro-4-(2-chloroethoxy)-5-cyanophenyl)propan-2-yl)phenoxy)methyl)thiazol-2-yl)methanesulfonamide] | 500 to 2000 | < 12 | 12 to 48 | < 4
C[C@@H](Oc1ccc(C(C)(C)c2cc(Cl)c(OCCCl)c(C#N)c2)cc1)c1ccnc(NS(C)(=O)=O)n1 (single isomer, unassigned) [Compound A169] | < 500 | < 12 | < 12 | < 4
CC(C)(c1ccc(OCc2ccnc(C#N)n2)cc1)c1cc(Cl)c(OCCCl)c(C#N)c1 [Compound A200] | 500 to 2000 | < 12 | < 12 | 4 to 18
CC(C)(c1ccc(OCc2ccc(S(C)(=O)=O)o2)cc1)c1cc(Cl)c(OCCCl)c(C#N)c1 [Compound A168, 3-chloro-2-(2-chloroethoxy)-5-(2-(4-((5-(methylsulfonyl)furan-2-yl)methoxy)phenyl)propan-2-yl)benzonitrile] | < 500 | < 12 | < 12 | 4 to 18
CC(Oc1ccc(C(C)(C)c2cc(Cl)c(OCCCl)c(C#N)c2)cc1)c1coc(NS(C)(=O)=O)n1 (stereo not shown) [Compound A91] | 500 to 2000 | < 12 | < 12 | 4 to 18
[2H]c1c([2H])c(C(C)(C)c2cc(Cl)c(OCCCl)c(C#N)c2)c([2H])c([2H])c1OCc1ccnc(NS(C)(=O)=O)n1 [Compound A201] | 500 to 2000 | < 12 | < 12 | < 4

Other lines, results leading:

IC50 (androgen receptor (AR)) [nM] | microsomal CLint at 1 μM [1] [µL/min/mg] | microsomal CLint at 1 μM [2] [µL/min/mg] | hepatocyte CLint at 1 μM [3] [µL/min/1e6 cells] | SMILES
500 to 2000 | 12 to 48 | 12 to 48 | 4 to 18 | CC(C)(c1ccc(CCc2ccnc(N)n2)cc1)c1cc(Cl)c(OCCCl)c(C#N)c1 [Compound A121]
< 500 | ≥ 48 | 12 to 48 | ≥ 18 | CC(C)S(=O)(=O)c1ncc(COc2ccc(C(C)(C)c3cc(Cl)c(OCCCl)c(C#N)c3)cc2)o1 [Compound A142]
< 500 | ≥ 48 | ≥ 48 | ≥ 18 | CC(=O)Nc1nc(COc2ccc(C(C)(C)c3cc(Cl)c(OCCCl)c(C#N)c3)cc2)co1 [Compound A140]
500 to 2000 | ≥ 48 | ≥ 48 | 4 to 18 | Cn1c(COc2ccc(C(C)(C)c3cc(Cl)c(OCCCl)c(C#N)c3)cc2)ccc1S(C)(=O)=O [Compound A193]
500 to 2000 | 12 to 48 | 12 to 48 | ≥ 18 | CC(C)(c1ccc(OCc2ocnc2S(C)(=O)=O)cc1)c1cc(Cl)c(OCC(O)CCl)c(Cl)c1 (stereo not shown) [Compound A117]
500 to 2000 | < 12 | < 12 | < 4 | CC(C)S(=O)(=O)Nc1nc(COc2ccc(C(C)(C)c3cc(Cl)c(OCCCl)c(C#N)c3)cc2)co1 [Compound A132]
< 500 | 12 to 48 | 12 to 48 | ≥ 18 | CC(C)(c1ccc(OCc2ocnc2S(C)(=O)=O)cc1)c1cc(Cl)c(OCC(Cl)CO)c(Cl)c1 (stereo not shown) [Compound A97]
